From PubChem BioAssay (NCI) come the findings set out here.

What all share (experiment): growth of human tumour cells (NCI), 48 h
Experiment [1] concerns HCT-15 colon.
For experiment [2], the system named is SNB-19 CNS.
Experiment [3] deals with SK-MEL-2 melanoma.
The test system of experiment [4] is OVCAR-8 ovarian.
Experiment [5] relates to MDA-MB-231 breast.
In experiment [6] the test system is BT-549 breast.
The test system of experiment [7] is SK-OV-3 ovarian.
For experiment [8], the system named is HCT-116 colon.
Experiment [9] relates to COLO 205 colon.
The test system of experiment [10] is MDA-MB-435.
The subject of experiment [11] is SN12C renal.
The test system of experiment [12] is NCI-H522 lung.
The test system of experiment [13] is NCI-H226 lung.
The test system of experiment [14] is SNB-75 CNS.
In experiment [15] the test system is U251 CNS.
Experiment [16] has as its system UO-31 renal.
In experiment [17] the test system is NCI-H460 lung.

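Protocol summary: plate cells (96-well), add compound at 5 concentrations, incubate 48 h, interpolate endpoints linearly. TGI marks complete inhibition of growth.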

As for `COC1CC(OC2C(C)OC(OC3C(C)OC(OC4C(C)OC(O[C@H]5CC[C@@]6(C)C(=CC[C@]7(O)[C@@H]6C[C@@H](O)[C@@]6(C)[C@]7(O)CC[C@@]6(O)C(C)=O)C5)CC4OC)CC3OC)CC2OC)OC(C)C1O` (some centres not stated), the TGI in [1], in experiment [2], in [3], in experiment [4], in [5] and in [6] was > 12.5 µM throughout. Also, the TGI in experiment [7], in [8], in experiment [9], in [10], in [11] and in experiment [12] was > 12.5 µM in each case. Further, the TGI in experiment [13], in experiment [14], in experiment [15] and in [16] was > 12.5 µM in each case.

For `CCOC(=O)C(C(=O)COC(C)(C)C)[C@@H]1C=C[C@H](OC(C)=O)C1` (some centres not stated), the TGI in experiment [1], in experiment [2], in [3], in [5], in experiment [6] and in experiment [7] was > 100 µM throughout. Moreover, the TGI in [8], in [9], in experiment [10], in experiment [11], in experiment [17] and in [13] was > 100 µM each time. Moreover, the TGI in [14], in experiment [15] and in experiment [16] was > 100 µM throughout.

`NN/C(=N\S(=O)(=O)c1ccc(S(=O)(=O)c2ccccc2)s1)Nc1ccc(Cl)cc1`: the TGI was > 100 µM in experiment [1]; > 100 µM in [2]; 53.8 µM in experiment [3]; > 100 µM in [4]; > 100 µM in experiment [5]; > 100 µM in experiment [6]. The TGI in experiment [7] is > 100 µM; in experiment [8], 32.5 µM; in [9], 46.2 µM; in experiment [11], 77.8 µM; in [17], 65.7 µM; in experiment [13] it was > 100 µM. In addition, the TGI in [15] and in [16] was > 100 µM each time.

Take `COC(=O)c1cc(/C=C\c2cc(OC)ccc2OC)ccc1OC`: the TGI in experiment [1] was > 100 µM; in experiment [2] it was > 100 µM; in experiment [3], 74.2 µM; in experiment [4] it was > 100 µM; in experiment [5], > 100 µM; in [6], > 100 µM. Besides, the TGI is 83.6 µM in experiment [7]; > 100 µM in [8]; 59.7 µM in experiment [9]; 61.4 µM in experiment [10]; > 100 µM in experiment [11]; > 100 µM in [17]. Also, the TGI in [12] is 45.6 µM; in experiment [15], > 100 µM; in experiment [16], 75.3 µM.

With `O=[N+]([O-])/C(C(Cl)=C(Cl)Cl)=C(/Nc1ccccc1)Sc1ccccc1`, the TGI in experiment [1] came out at 41.6 µM; in experiment [2] it was 34.3 µM; in experiment [4], 33.6 µM; in experiment [5], 37.6 µM; in [6], 66.9 µM; in experiment [7], 42.9 µM. The TGI stood at 38.4 µM in experiment [8]; 34.8 µM in experiment [9]; 33.9 µM in experiment [10]; 97.5 µM in experiment [11]; 41.6 µM in [17]; 33.6 µM in [12]. For the same molecule, the TGI came to 40.1 µM in experiment [13], 27.7 µM in experiment [15] and 27.5 µM in experiment [16].

As to `CC/C(N)=N\NC(=O)OC(C)(C)C`, the TGI in [1], in experiment [2], in [3], in experiment [4], in experiment [5] and in [6] was > 100 µM throughout. Moreover, the TGI in experiment [7], in experiment [8], in experiment [9], in experiment [10], in [11] and in experiment [12] was > 100 µM each time. Besides, the TGI in experiment [13], in experiment [14], in experiment [15] and in experiment [16] was > 100 µM each time.

For the molecule `O=C(O)c1ccc(N/C(=C(/C(Cl)=C(Cl)Cl)[N+](=O)[O-])n2nnc3ccccc32)cc1`, the TGI in [1], in [2], in experiment [3], in experiment [4], in experiment [5] and in experiment [6] was > 100 µM throughout. The TGI in [7], in [8], in [9], in experiment [10], in experiment [11] and in experiment [17] was > 100 µM throughout. Moreover, the TGI in experiment [13], in experiment [15] and in [16] was > 100 µM each time.

As for `O=C(Nc1ccc(Cl)cc1)c1cc(S(=O)(=O)Nc2n[nH]c(=O)n2-c2ccccc2)c(S)cc1Cl`, the TGI in [1], in experiment [2], in experiment [3], in [4], in experiment [5] and in experiment [6] was > 100 µM in each case. The TGI in experiment [7], in experiment [8], in experiment [9], in experiment [10], in [11] and in experiment [17] was > 100 µM in each case. For the same molecule, the TGI in experiment [13], in experiment [15] and in [16] was > 100 µM each time.

Consider `Cc1ccc(/C=C2\N=C(N3CCCC(CO)C3)NC2=O)cc1` (configuration not stated), for which the TGI in experiment [1], in [2], in [3], in experiment [4], in experiment [5] and in experiment [6] was > 100 µM throughout. The TGI in experiment [7], in experiment [8], in [9], in [10], in experiment [11] and in experiment [12] was > 100 µM each time. Moreover, the TGI in experiment [13], in experiment [14], in [15] and in experiment [16] was > 100 µM each time.
